From US11020358B2, “Method for the anti-senescence of and/or rejuvenating stem cells” (GWO XI STEM CELL APPLIED TECHNOLOGY CO., LTD., priority 2014, dated 2021)

Legend:
Type in all cases: cell-based, human
ADSCs [1] = assay: Microarray analysis of gene expression in ADSCs; conditions: H2O2+TC6 group ADSCs, H2O2 group set as one fold; p < 0.05
Method: Four portions of equal volume of the above culture medium containing the sub-cultured ADSCs were separately handled by adding thereinto H2O2 (purchased from Sigma-Aldrich) at a final concentration of 100 μM and reacting for 2 hours to induce senescence of the ADSCs, replacing the culture medium with a fresh culture medium, adding thereinto TC (trans-cinnamaldehyde, purchased from Sigma-Aldrich) at a final concentration of 0, 2, 4 or 6 μM and reacting for 6 hours, so as to obtain “H2O2 group (i.e., treated with H2O2 for 2 hours, but not treated with TC),” “H2O2+TC2 group (i.e., treated with H2O2 for 2 hours and then treated with 2 μM of TC for 6 hours),” “H2O2+TC4 group (i.e., treated with H2O2 for 2 hours and then treated with 4 μM of TC for 6 hours),” and “H2O2+TC6 group (i.e., treated with H2O2 for 2 hours and then treated with 6 μM of TC for 6 hours)” ADSCs. Each of the total cellular RNA of ADSCs of “H2O2 group” and “H2O2+TC6 group” from Experiment (3-1) was handled as follows. […] The products thus obtained are single strand cDNA of these genes. The cDNA was hybridized with a gene chip (Affymetrix GeneChip Human Genome U133 plus 2.0 Array, Affymetrix). Then, the gene chip was scanned and analyzed with a microarray scanner system (Gene Chip® Scanner 3000).

ADSCs [2] = assay: Osteogenic differentiation assay; conditions: H2O2 group ADSCs (100 μM 2 h), compared to untreated group
Method: Four portions of equal volume of the above culture medium containing the sub-cultured ADSCs were separately handled by adding thereinto H2O2 (purchased from Sigma-Aldrich) at a final concentration of 100 μM and reacting for 2 hours to induce senescence of the ADSCs, replacing the culture medium with a fresh culture medium, adding thereinto TC (trans-cinnamaldehyde, purchased from Sigma-Aldrich) at a final concentration of 0, 2, 4 or 6 μM and reacting for 6 hours, so as to obtain “H2O2 group (i.e., treated with H2O2 for 2 hours, but not treated with TC),” “H2O2+TC2 group (i.e., treated with H2O2 for 2 hours and then treated with 2 μM of TC for 6 hours),” “H2O2+TC4 group (i.e., treated with H2O2 for 2 hours and then treated with 4 μM of TC for 6 hours),” and “H2O2+TC6 group (i.e., treated with H2O2 for 2 hours and then treated with 6 μM of TC for 6 hours)” ADSCs. […] After being photographed, the absorbance at a wavelength of 450 nm (i.e., OD450) of each sample was measured to figure out the effect of H2O2 and/or TC on the osteogenic differentiation capacity of ADSCs.

ADSCs [3] = assay: Adipogenic differentiation assay (Oil Red O); conditions: H2O2 group ADSCs (100 μM 2 h), compared to untreated group
Method: Four portions of equal volume of the above culture medium containing the sub-cultured ADSCs were separately handled by adding thereinto H2O2 (purchased from Sigma-Aldrich) at a final concentration of 100 μM and reacting for 2 hours to induce senescence of the ADSCs, replacing the culture medium with a fresh culture medium, adding thereinto TC (trans-cinnamaldehyde, purchased from Sigma-Aldrich) at a final concentration of 0, 2, 4 or 6 μM and reacting for 6 hours, so as to obtain “H2O2 group (i.e., treated with H2O2 for 2 hours, but not treated with TC),” “H2O2+TC2 group (i.e., treated with H2O2 for 2 hours and then treated with 2 μM of TC for 6 hours),” “H2O2+TC4 group (i.e., treated with H2O2 for 2 hours and then treated with 4 μM of TC for 6 hours),” and “H2O2+TC6 group (i.e., treated with H2O2 for 2 hours and then treated with 6 μM of TC for 6 hours)” ADSCs. […]
After being photographed, the oil droplets were extracted from the cells in each sample with isopropanol containing 4% Nonidet P-40. The absorbance of the oil droplets at a wavelength of 510 nm (i.e., OD510) of each sample were measured, wherein the absorbance corresponds to the number of cells in orange-red color (i.e., cells present after adipogenic differentiation).

Row | SMILES | CCND1 gene expression level (ADSCs [1]) [Folds] | E2F6 gene expression level (ADSCs [1]) [Folds] | EIF5 gene expression level (ADSCs [1]) [Folds] | GADD45B gene expression level (ADSCs [1]) [Folds] | NYFA gene expression level (ADSCs [1]) [Folds] | PCNA gene expression level (ADSCs [1]) [Folds] | PIM1 gene expression level (ADSCs [1]) [Folds] | POLR3H gene expression level (ADSCs [1]) [Folds] | SIRT1 gene expression level (ADSCs [1]) [Folds] | hTERT gene expression level (ADSCs [1]) [Folds] | p16 gene expression level (ADSCs [1]) [Folds] | p53 gene expression level (ADSCs [1]) [Folds] | cell number after osteogenic differentiation (OD450) (ADSCs [2]) | cell number after adipogenic differentiation (OD510) (ADSCs [3])
1 | O=C/C=C/c1ccccc1 [TC, trans-cinnamaldehyde] | 5.8 | 2.2 | 3.4 | −4.6 | 7.2 | 2 | −4.4 | 2.2 | 2.4 | 2 | −1.8 | −1 | – | –
2 | OO [H2O2, reference compound] | – | – | – | – | – | – | – | – | – | – | – | – | significantly reduced | significantly reduced
